In PubChem BioAssay (NCI):
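In this assay, cells in 96-well plates receive the compound at five concentrations for 48 hours. Endpoints are linearly interpolated between the surrounding concentrations. Definition used: TGI = concentration required for complete inhibition of growth.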

How the values were obtained:
Assay in all cases: NCI tumour cell line growth inhibition, 48 h
NCI-H23 lung = system: NCI-H23 lung
U251 CNS = system: U251 CNS
MALME-3M melanoma = system: MALME-3M melanoma
NCI-H522 lung = system: NCI-H522 lung
HCT-116 colon = system: HCT-116 colon
CCRF-CEM leukemia = system: CCRF-CEM leukemia
SW-620 colon = system: SW-620 colon
MOLT-4 leukemia = system: MOLT-4 leukemia
UACC-257 melanoma = system: UACC-257 melanoma
SK-MEL-28 melanoma = system: SK-MEL-28 melanoma
TK-10 renal = system: TK-10 renal
SNB-75 CNS = system: SNB-75 CNS
M14 melanoma = system: M14 melanoma
HCT-15 colon = system: HCT-15 colon
KM12 colon = system: KM12 colon
NCI-H460 lung = system: NCI-H460 lung
HOP-62 NSCLC = system: HOP-62 NSCLC
K-562 leukemia = system: K-562 leukemia
A549 NSCLC = system: A549 NSCLC
IGROV1 ovarian = system: IGROV1 ovarian
A498 renal = system: A498 renal
RPMI-8226 leukemia = system: RPMI-8226 leukemia
SF-268 CNS = system: SF-268 CNS
HL-60(TB) leukemia = system: HL-60(TB) leukemia
SK-MEL-5 melanoma = system: SK-MEL-5 melanoma
786-0 renal = system: 786-0 renal
LOX IMVI melanoma = system: LOX IMVI melanoma
OVCAR-8 ovarian = system: OVCAR-8 ovarian
UO-31 renal = system: UO-31 renal
SF-295 CNS = system: SF-295 CNS
XF 498 CNS = system: XF 498 CNS
LXFL 529 NSCLC = system: LXFL 529 NSCLC
SK-MEL-2 melanoma = system: SK-MEL-2 melanoma
RXF 393 renal = system: RXF 393 renal
DMS 273 small cell lung = system: DMS 273 small cell lung
OVCAR-4 ovarian = system: OVCAR-4 ovarian
CAKI-1 renal = system: CAKI-1 renal
UACC-62 melanoma = system: UACC-62 melanoma
SN12C renal = system: SN12C renal
SNB-78 CNS = system: SNB-78 CNS
HCC-2998 colon = system: HCC-2998 colon
EKVX NSCLC = system: EKVX NSCLC
SF-539 CNS = system: SF-539 CNS
RXF-631 renal = system: RXF-631 renal
HT29 colon = system: HT29 colon
DLD-1 colon = system: DLD-1 colon
OVCAR-5 ovarian = system: OVCAR-5 ovarian
ACHN renal = system: ACHN renal
OVCAR-3 ovarian = system: OVCAR-3 ovarian
M19-MEL melanoma = system: M19-MEL melanoma
MDA-N = system: MDA-N
BT-549 breast = system: BT-549 breast
HOP-18 NSCLC = system: HOP-18 NSCLC
SR leukemia = system: SR leukemia
T-47D breast = system: T-47D breast
HOP-92 NSCLC = system: HOP-92 NSCLC
COLO 205 colon = system: COLO 205 colon
SNB-19 CNS = system: SNB-19 CNS
DMS 114 small cell lung = system: DMS 114 small cell lung
MDA-MB-231 breast = system: MDA-MB-231 breast
NCI/ADR-RES ovarian = system: NCI/ADR-RES ovarian
HS 578T breast = system: HS 578T breast
PC-3 prostate = system: PC-3 prostate
KM20L2 colon = system: KM20L2 colon
MDA-MB-435 = system: MDA-MB-435
DU-145 prostate = system: DU-145 prostate
MCF7 breast = system: MCF7 breast
SK-OV-3 ovarian = system: SK-OV-3 ovarian
NCI-H226 lung = system: NCI-H226 lung

In the case of `CC12CCCCC1C(=O)C2(Cl)Cl` (stereo not given), the TGI (NCI-H23 lung) was 8.59 µM, the TGI (U251 CNS) was 5.56 µM and the TGI (MALME-3M melanoma) was 4.19 µM. For the same compound, the TGI (NCI-H522 lung) was 4.61 µM, the TGI (HCT-116 colon) was 3.51 µM and the TGI (CCRF-CEM leukemia) was 5.45 µM. It also gave a TGI (SW-620 colon) of 4.47 µM, a TGI (MOLT-4 leukemia) of 5.44 µM and a TGI (UACC-257 melanoma) of 5.63 µM. For the same compound, the TGI (SK-MEL-28 melanoma) was 4.18 µM, the TGI (TK-10 renal) was 11.3 µM and the TGI (SNB-75 CNS) was 18.3 µM. For the same compound, the TGI (M14 melanoma) was 5.32 µM, the TGI (HCT-15 colon) was 11.3 µM and the TGI (KM12 colon) was 4.97 µM. It also gave a TGI (NCI-H460 lung) of 6.37 µM, a TGI (HOP-62 NSCLC) of 4.92 µM and a TGI (K-562 leukemia) of 4.37 µM. It also gave a TGI (A549 NSCLC) of 11.2 µM, a TGI (IGROV1 ovarian) of 9.95 µM and a TGI (A498 renal) of 12.7 µM. For the same compound, the TGI (RPMI-8226 leukemia) was 3.79 µM, the TGI (SF-268 CNS) was 14.6 µM and the TGI (HL-60(TB) leukemia) was 3.88 µM. For the same compound, the TGI (SK-MEL-5 melanoma) was 3.82 µM, the TGI (786-0 renal) was 4.73 µM and the TGI (LOX IMVI melanoma) was 6.1 µM. It also gave a TGI (OVCAR-8 ovarian) of 5.16 µM, a TGI (UO-31 renal) of 5.23 µM and a TGI (SF-295 CNS) of 3.38 µM. For the same compound, the TGI (XF 498 CNS) was 4.19 µM, the TGI (LXFL 529 NSCLC) was 6 µM and the TGI (SK-MEL-2 melanoma) was 4.41 µM. The TGI (RXF 393 renal) was 14.3 µM, the TGI (DMS 273 small cell lung) was 5.4 µM and the TGI (OVCAR-4 ovarian) was 12.5 µM. For the same compound, the TGI (CAKI-1 renal) was 10.1 µM, the TGI (UACC-62 melanoma) was 6.09 µM and the TGI (SN12C renal) was 12.3 µM. For the same compound, the TGI (SNB-78 CNS) was 17.9 µM, the TGI (HCC-2998 colon) was 4.22 µM and the TGI (EKVX NSCLC) was 11 µM. The TGI (SF-539 CNS) was 5.18 µM, the TGI (RXF-631 renal) was 5 µM and the TGI (HT29 colon) was 3.06 µM. The TGI (DLD-1 colon) was 6.22 µM, the TGI (OVCAR-5 ovarian) was 8.96 µM and the TGI (ACHN renal) was 5.91 µM. For the same compound, the TGI (OVCAR-3 ovarian) was 3.58 µM.

With `O=C(CSc1ncnc2nc[nH]c12)c1ccccc1` the TGI (NCI-H23 lung) was > 100 µM, the TGI (U251 CNS) was > 100 µM and the TGI (M19-MEL melanoma) was > 100 µM. The TGI (MALME-3M melanoma) was > 100 µM, the TGI (NCI-H522 lung) was > 100 µM and the TGI (HCT-116 colon) was > 100 µM. The TGI (CCRF-CEM leukemia) was > 100 µM, the TGI (SW-620 colon) was > 100 µM and the TGI (MDA-N) was > 100 µM. The TGI (MOLT-4 leukemia) was > 100 µM, the TGI (BT-549 breast) was > 100 µM and the TGI (HOP-18 NSCLC) was > 100 µM. For the same compound, the TGI (SR leukemia) was > 100 µM, the TGI (T-47D breast) was > 100 µM and the TGI (UACC-257 melanoma) was > 100 µM. The TGI (SK-MEL-28 melanoma) was > 100 µM, the TGI (HOP-92 NSCLC) was > 100 µM and the TGI (TK-10 renal) was > 100 µM. The TGI (COLO 205 colon) was > 100 µM, the TGI (SNB-19 CNS) was > 100 µM and the TGI (M14 melanoma) was > 100 µM. For the same compound, the TGI (DMS 114 small cell lung) was > 100 µM, the TGI (HCT-15 colon) was > 100 µM and the TGI (MDA-MB-231 breast) was > 100 µM. For the same compound, the TGI (KM12 colon) was > 57.1 µM, the TGI (NCI/ADR-RES ovarian) was > 100 µM and the TGI (NCI-H460 lung) was > 100 µM. The TGI (HS 578T breast) was > 100 µM, the TGI (HOP-62 NSCLC) was > 100 µM and the TGI (K-562 leukemia) was > 100 µM. For the same compound, the TGI (A549 NSCLC) was > 100 µM, the TGI (IGROV1 ovarian) was > 100 µM and the TGI (A498 renal) was > 100 µM. The TGI (PC-3 prostate) was > 100 µM, the TGI (RPMI-8226 leukemia) was > 100 µM and the TGI (SF-268 CNS) was > 100 µM. For the same compound, the TGI (HL-60(TB) leukemia) was > 100 µM, the TGI (KM20L2 colon) was > 100 µM and the TGI (MDA-MB-435) was > 100 µM. The TGI (SK-MEL-5 melanoma) was > 100 µM, the TGI (786-0 renal) was > 100 µM and the TGI (LOX IMVI melanoma) was > 100 µM. For the same compound, the TGI (OVCAR-8 ovarian) was > 100 µM, the TGI (UO-31 renal) was > 100 µM and the TGI (SF-295 CNS) was > 100 µM. For the same compound, the TGI (XF 498 CNS) was > 100 µM, the TGI (LXFL 529 NSCLC) was > 100 µM and the TGI (SK-MEL-2 melanoma) was > 57.8 µM. For the same compound, the TGI (RXF 393 renal) was > 100 µM, the TGI (DU-145 prostate) was > 100 µM and the TGI (DMS 273 small cell lung) was > 100 µM. The TGI (OVCAR-4 ovarian) was > 100 µM, the TGI (CAKI-1 renal) was > 100 µM and the TGI (UACC-62 melanoma) was > 100 µM. For the same compound, the TGI (SN12C renal) was > 100 µM, the TGI (MCF7 breast) was > 100 µM and the TGI (SNB-78 CNS) was > 100 µM. The TGI (EKVX NSCLC) was > 100 µM, the TGI (SK-OV-3 ovarian) was > 100 µM and the TGI (SF-539 CNS) was > 100 µM. The TGI (NCI-H226 lung) was > 100 µM, the TGI (HT29 colon) was > 100 µM and the TGI (DLD-1 colon) was > 100 µM. For the same compound, the TGI (OVCAR-5 ovarian) was > 100 µM, the TGI (ACHN renal) was > 100 µM and the TGI (OVCAR-3 ovarian) was > 100 µM.
